# Laboratory results reported in the supplement of paper PMC10307832.
# Assays:
# Experiment in all cases: relative viability (nuclei count vs DMSO), 5 days (fraction); higher = more cells survive
# [1] = compound: OCc1c[nH]c2ccccc12 [Indole-3-carbinol]
# Procedure, shortened: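 Cells of lung cancer lines were placed in 1536-well plates and kept overnight at 37 °C. Pinning then delivered five library-drug doses (not always all listed), spaced by √10, onto plates anchored with vehicle, and the cells were left 5 days without changing medium. One step fixed, permeabilised and stained them with Hoechst, and MetaXpress counted nuclei in 4× images. Viability, as a median over plates, is treated-well nuclei divided by vehicle-well nuclei, with acceptance only at control CV below 25% and at least one doubling.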
# [2] = compound: OCc1c[nH]c2ccccc12 [Indole-3-carbinol] + O=C(CCCCCCC(=O)Nc1ccccc1)NO [Vorinostat] (partner 1 µM)
# Procedure, shortened: (§1)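 Nuclei were stained with Hoechst during a one-step fixation (final 0.05% Triton X-100, 1% formaldehyde, 1 ug/ml Hoechst) carried out 5 days after dosing, then counted on 4× images. The cells, lung cancer lines in 1536-well plates, had been dosed by pin tool the day after seeding with one drug alone or a fixed anchor-drug dose plus five library-drug doses (not always all listed) in √10 steps. Relative viability is the nuclei count in treated wells divided by that in vehicle wells, and each value is the median of duplicate plates.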
# [3] = compound: OCc1c[nH]c2ccccc12 [Indole-3-carbinol] + C[C@]1(O)C[C@@H](c2nc(-c3ccc4ccc(-c5ccccc5)nc4c3)c3c(N)nccn32)C1 [Linsitinib] (partner 1 µM)
# Procedure, shortened: as §1
# [4] = compound: OCc1c[nH]c2ccccc12 [Indole-3-carbinol] + CCNC(=O)c1noc(-c2cc(C(C)C)c(O)cc2O)c1-c1ccc(CN2CCOCC2)cc1 [Luminespib] (partner 0.01 µM)
# Procedure, shortened: as §1
# [5] = compound: OCc1c[nH]c2ccccc12 [Indole-3-carbinol] + C[C@@H](Oc1cc(-c2cnn(C3CCNCC3)c2)cnc1N)c1c(Cl)ccc(F)c1Cl [Crizotinib] (partner 1 µM)
# Procedure, shortened: as §1
Cell Line,relative viability ([1]; 0.253 µM),relative viability ([1]; 0.8 µM),relative viability ([1]; 2.53 µM),relative viability ([1]; 8 µM),relative viability ([2]; first compound 0.253 µM),relative viability ([2]; first compound 0.8 µM),relative viability ([2]; first compound 2.53 µM),relative viability ([2]; first compound 8 µM),relative viability ([3]; first compound 0.253 µM),relative viability ([3]; first compound 0.8 µM),relative viability ([3]; first compound 2.53 µM),relative viability ([3]; first compound 8 µM),relative viability ([4]; first compound 0.253 µM),relative viability ([4]; first compound 0.8 µM),relative viability ([4]; first compound 2.53 µM),relative viability ([4]; first compound 8 µM),relative viability ([5]; first compound 0.253 µM),relative viability ([5]; first compound 0.8 µM),relative viability ([5]; first compound 2.53 µM),relative viability ([5]; first compound 8 µM)
NCI-H1651,0.994,0.97,1.05,0.945,0.517,0.55,0.616,0.646,0.873,1.11,1.06,0.895,0.848,0.877,0.686,0.753,0.766,0.841,0.917,0.886
NCI-H1666,0.998,1.04,0.961,0.998,0.926,1.1,1.08,0.995,0.81,0.867,0.84,0.808,0.914,0.925,1.01,1.05,1.11,0.994,1.42,0.892
NCI-H1734,0.997,0.866,0.973,0.932,0.799,0.809,0.803,0.774,0.947,0.872,0.835,0.813,0.242,0.246,0.194,0.221,0.72,0.777,0.637,0.632
NCI-H1755,1.05,0.997,0.993,0.929,0.83,0.694,0.738,0.78,1.03,1.05,0.95,0.959,0.554,0.407,0.49,0.348,0.916,0.97,0.862,0.888
NCI-H1915,1.01,1.01,0.956,0.976,0.511,0.512,0.495,0.518,1.09,1.1,1.1,1.11,0.695,0.794,0.741,0.662,0.881,0.852,0.892,0.924
NCI-H1944,0.971,0.793,0.955,0.962,0.529,0.472,0.595,0.523,1.27,1.1,1.17,1.17,0.792,0.682,0.842,0.79,1.06,0.951,1.12,0.955
NCI-H1975,1.04,0.93,1,0.897,0.663,0.754,0.73,0.712,0.812,1.05,0.964,0.954,0.343,0.224,0.171,0.21,1,1.13,0.966,0.97
NCI-H1993,1.06,1.07,0.872,0.919,0.697,1.05,0.958,0.783,0.692,0.793,0.815,0.667,1.02,0.915,0.889,0.823,0.873,0.896,0.813,0.944
NCI-H2009,1.05,1.03,1.01,0.951,0.752,0.733,0.746,0.699,1.24,1.26,1.17,1.13,1.05,1.08,1.05,0.893,0.993,1.07,0.953,1
NCI-H2023,0.952,0.963,0.984,0.935,0.727,0.526,0.588,0.572,0.728,0.667,0.687,0.589,0.526,0.751,0.818,0.707,0.716,0.732,0.651,0.631
NCI-H2085,1.01,1.03,1.03,0.949,0.867,0.751,0.753,0.687,0.828,0.897,0.982,0.779,0.456,0.429,0.395,0.498,0.897,0.738,0.832,0.786
NCI-H2087,1.18,1.11,1.01,0.896,0.837,1.09,0.86,0.655,1.07,1.04,1.01,0.915,0.119,0.194,0.177,0.172,1.01,0.997,1.1,0.88
NCI-H2126,0.986,1.01,0.997,0.957,0.734,0.834,0.718,0.752,0.694,0.715,0.68,0.702,0.887,0.876,0.992,0.851,1.01,1.05,1.02,1.03
NCI-H2228,1.09,0.84,1.19,0.999,0.728,0.682,0.788,0.571,0.513,0.934,0.96,0.604,0.108,0.19,0.229,0.151,0.582,0.461,0.567,0.454
NCI-H2347,1.08,1.07,1.09,0.961,0.521,0.638,0.526,0.506,0.986,1.06,1.04,0.793,0.609,0.215,0.425,0.59,0.747,0.607,0.706,0.671
NCI-H2405,1.06,1.01,1.06,1.03,1,1.03,0.971,0.978,0.945,0.805,0.903,0.89,0.847,0.812,0.859,0.696,0.875,0.825,0.901,0.78
